Results on eight molecules are retold here after US5272144A, “Aryloxy-, arylthio-, heteroaryloxy-, heteroarylthio-alkenylene derivatives of amines and pharmaceutical use” (Farmitalia Carlo Erba s.r.l., priority 1988, dated 1993).

Experiment [1] has as its system reserpine-induced hypothermia. The experiment is described as follows: prevention of reserpine-induced hypothermia in mice (antidepressant activity). The conditions noted are these: Mus musculus, po, 4 h, per os, 30 min before reserpine 2.4 mg/kg endoperitoneally, rectal temperature four hours after reserpine, read-out: HYPOTH/ED50 (hypothermia). It is filed as in vivo. How it is done:
(§1) The antidepressant activity was evaluated for example in mice on the basis of the prevention of reserpine-induced blepharospasm and hypothermia.

Experiment [2] concerns reserpine-induced blepharospasm. The experiment is described as follows: prevention of reserpine-induced blepharospasm in mice (antidepressant activity). It is filed as in vivo. To be noted: Mus musculus, po, 1 h, per os, 30 min before reserpine 2.4 mg/kg endoperitoneally, blepharospasm scored one hour after reserpine, read-out: BLEPH/ED50 (blepharospasm). Here is the method:
as §1

As for `CN(C)C/C=C(\Oc1ccccc1)c1ccccc1` [H H H H CH3 CH3 Z, (Z)α-phenoxy-α-phenyl-β-dimethylaminomethyl-ethylene], the ED50 in experiment [1] came to 1.4 mg/kg; in experiment [2] it was 0.5 mg/kg.
With `CNC/C=C(\Oc1ccc(Cl)c(Cl)c1)c1ccccc1` [3-Cl 4-Cl H H H CH3 Z, α-(3,4-dichlorophenoxy)-α-phenyl-β-methylaminomethyl-ethylene], the ED50 in experiment [1] worked out at 1.3 mg/kg; in experiment [2], 1.2 mg/kg.
As for `CNC/C=C(\Oc1ccccc1Cl)c1ccccc1` [H 2-Cl H H H CH3 Z, α-(2-chlorophenoxy)-α-phenyl-β-methylaminomethyl-ethylene], the ED50 in experiment [1] amounted to 0.2 mg/kg; in experiment [2] it was 0.7 mg/kg.
On the same counts, the results for `CNC/C=C(/Oc1ccccc1)c1ccc2c(c1)OCO2` [H H 3,4-OCH2 O H CH3 E, α-phenoxy-α-(3,4-methylenedioxyphenyl)-β-methylaminomethyl-ethylene] are 1.4 mg/kg and 1 mg/kg.
`CN(C)CCCN1c2ccccc2CCc2ccccc21` [IMIPRAMINE, reference compound]: the ED50 in experiment [1] was found to be 10.2 mg/kg; in experiment [2], 24.1 mg/kg.
On the same counts, the results for `CNC/C=C(\Oc1ccccc1)c1ccccc1` [H H H H H CH3 Z, (Z)α-phenoxy-α-phenyl-β-methylaminomethyl-ethylene] are 0.8 mg/kg and 0.8 mg/kg.
Taken in the same sequence, the figures for `CNC/C=C(\Oc1ccccc1)c1ccc2c(c1)OCO2` [H H 3,4-OCH2 O H CH3 Z, α-phenoxy-α-(3,4-methylenedioxyphenyl)-β-methylaminomethyl-ethylene] were 2.4 mg/kg and 2.2 mg/kg.
On the same counts, the results for `CNC/C=C(/Oc1ccccc1Cl)c1ccccc1` [H 2-Cl H H H CH3 E, α-(2-chlorophenoxy)-α-phenyl-β-methylaminomethyl-ethylene] are 1.2 mg/kg and 1.1 mg/kg.
